Results published in ChEMBL document CHEMBL2439971, “Design, synthesis and antiproliferative evaluation of fluorenone analogs with DNA topoisomerase I inhibitory properties” (Bioorg Med Chem, 2013).
Activity calls are given as the source filed them. The rule behind the calls is not given here.

Tests used:
[1] = tested on: HCT-116; test: Cytotoxicity against human HCT116 cells at 10 uM after 48 hrs by sulforhodamine B assay relative to control; assay type: functional
[2] = tested on: CCRF-CEM; test: Cytotoxicity against human CCRF-CEM cells at 10 uM after 48 hrs by sulforhodamine B assay relative to control; assay type: functional
[3] = tested on: NCI-H322M; test: Cytotoxicity against human NCI-H322M cells at 10 uM after 48 hrs by sulforhodamine B assay relative to control; assay type: functional
[4] = tested on: UO-31; test: Cytotoxicity against human UO31 cells at 10 uM after 48 hrs by sulforhodamine B assay relative to control; assay type: functional
[5] = tested on: SN12C; test: Cytotoxicity against human SN12C cells at 10 uM after 48 hrs by sulforhodamine B assay relative to control; assay type: functional
[6] = tested on: HT-29; test: Cytotoxicity against human HT-29 cells at 10 uM after 48 hrs by sulforhodamine B assay relative to control; assay type: functional
[7] = tested on: T47D; test: Cytotoxicity against human T47D cells at 10 uM after 48 hrs by sulforhodamine B assay relative to control; assay type: functional
[8] = tested on: SF-539; test: Cytotoxicity against human SF539 cells at 10 uM after 48 hrs by sulforhodamine B assay relative to control; assay type: functional
[9] = tested on: SK-MEL-5; test: Cytotoxicity against human SK-MEL-5 cells at 10 uM after 48 hrs by sulforhodamine B assay relative to control; assay type: functional
[10] = tested on: SR; test: Cytotoxicity against human SR cells at 10 uM after 48 hrs by sulforhodamine B assay relative to control; assay type: functional
[11] = tested on: CAKI-1; test: Cytotoxicity against human CAKI-1 cells at 10 uM after 48 hrs by sulforhodamine B assay relative to control; assay type: functional
[12] = tested on: UACC-257; test: Cytotoxicity against human UACC257 cells at 10 uM after 48 hrs by sulforhodamine B assay relative to control; assay type: functional
[13] = tested on: HCT-15; test: Cytotoxicity against human HCT15 cells at 10 uM after 48 hrs by sulforhodamine B assay relative to control; assay type: functional
[14] = tested on: RXF 393; test: Cytotoxicity against human RXF393 cells at 10 uM after 48 hrs by sulforhodamine B assay relative to control; assay type: functional
[15] = tested on: NCI/ADR-RES; test: Cytotoxicity against human NCI/ADR-RES cells at 10 uM after 48 hrs by sulforhodamine B assay relative to control; assay type: functional
[16] = tested on: MDA-MB-231; test: Cytotoxicity against human MDA-MB-231 cells at 10 uM after 48 hrs by sulforhodamine B assay relative to control; assay type: functional
[17] = tested on: OVCAR-4; test: Cytotoxicity against human OVCAR4 cells at 10 uM after 48 hrs by sulforhodamine B assay relative to control; assay type: functional
[18] = tested on: SF-295; test: Cytotoxicity against human SF295 cells at 10 uM after 48 hrs by sulforhodamine B assay relative to control; assay type: functional
[19] = tested on: PC-3; test: Cytotoxicity against human PC3 cells after 48 hrs by sulforhodamine B assay; assay type: functional, cell-based; settings: PC-3, 48 h
[20] = tested on: UACC-62; test: Cytotoxicity against human UACC62 cells at 10 uM after 48 hrs by sulforhodamine B assay relative to control; assay type: functional
[21] = tested on: SK-MEL-2; test: Cytotoxicity against human SK-MEL-2 cells at 10 uM after 48 hrs by sulforhodamine B assay relative to control; assay type: functional
[22] = tested on: BT-549; test: Cytotoxicity against human BT549 cells at 10 uM after 48 hrs by sulforhodamine B assay relative to control; assay type: functional
[23] = tested on: 786-0; test: Cytotoxicity against human 786-0 cells at 10 uM after 48 hrs by sulforhodamine B assay relative to control; assay type: functional
[24] = Cytotoxicity against human Hs 578T cells at 10 uM after 48 hrs by sulforhodamine B assay relative to control; assay type: functional
[25] = tested on: OVCAR-8; test: Cytotoxicity against human OVCAR8 cells at 10 uM after 48 hrs by sulforhodamine B assay relative to control; assay type: functional
[26] = tested on: M14; test: Cytotoxicity against human M14 cells at 10 uM after 48 hrs by sulforhodamine B assay relative to control; assay type: functional
[27] = tested on: NCI-H460; test: Cytotoxicity against human NCI-H460 cells at 10 uM after 48 hrs by sulforhodamine B assay relative to control; assay type: functional
[28] = tested on: COLO 205; test: Cytotoxicity against human COLO205 cells at 10 uM after 48 hrs by sulforhodamine B assay relative to control; assay type: functional
[29] = tested on: MDA-MB-468; test: Cytotoxicity against human MDA-MB-468 cells at 10 uM after 48 hrs by sulforhodamine B assay relative to control; assay type: functional
[30] = tested on: HOP-62; test: Cytotoxicity against human HOP62 cells at 10 uM after 48 hrs by sulforhodamine B assay relative to control; assay type: functional
[31] = species: Homo sapiens; test: Inhibition of telomerase (unknown origin) at 10 uM TRAP assay
[32] = tested on: TK-10; test: Cytotoxicity against human TK10 cells at 10 uM after 48 hrs by sulforhodamine B assay relative to control; assay type: functional
[33] = tested on: RPMI-8226; test: Cytotoxicity against human RPMI8226 cells at 10 uM after 48 hrs by sulforhodamine B assay relative to control; assay type: functional
[34] = tested on: NCI-H23; test: Cytotoxicity against human NCI-H23 cells at 10 uM after 48 hrs by sulforhodamine B assay relative to control; assay type: functional
[35] = tested on: U-251; test: Cytotoxicity against human U251 cells at 10 uM after 48 hrs by sulforhodamine B assay relative to control; assay type: functional
[36] = tested on: SNB-19; test: Cytotoxicity against human SNB19 cells at 10 uM after 48 hrs by sulforhodamine B assay relative to control; assay type: functional
[37] = tested on: SF-268; test: Cytotoxicity against human SF268 cells at 10 uM after 48 hrs by sulforhodamine B assay relative to control; assay type: functional
[38] = tested on: OVCAR-5; test: Cytotoxicity against human OVCAR5 cells at 10 uM after 48 hrs by sulforhodamine B assay relative to control; assay type: functional
[39] = tested on: NCI-H522; test: Cytotoxicity against human NCI-H522 cells at 10 uM after 48 hrs by sulforhodamine B assay relative to control; assay type: functional
[40] = tested on: SK-MEL-28; test: Cytotoxicity against human SK-MEL-28 cells at 10 uM after 48 hrs by sulforhodamine B assay relative to control; assay type: functional
[41] = tested on: NCI-H226; test: Cytotoxicity against human NCI-H226 cells at 10 uM after 48 hrs by sulforhodamine B assay relative to control; assay type: functional
[42] = tested on: LOX IMVI; test: Cytotoxicity against human LOXIMVI cells at 10 uM after 48 hrs by sulforhodamine B assay relative to control; assay type: functional
[43] = tested on: K562; test: Cytotoxicity against human K562 cells at 10 uM after 48 hrs by sulforhodamine B assay relative to control; assay type: functional
[44] = tested on: OVCAR-3; test: Cytotoxicity against human OVCAR3 cells at 10 uM after 48 hrs by sulforhodamine B assay relative to control; assay type: functional
[45] = tested on: KM12; test: Cytotoxicity against human KM12 cells at 10 uM after 48 hrs by sulforhodamine B assay relative to control; assay type: functional
[46] = tested on: Malme-3M; test: Cytotoxicity against human MALME-3M cells at 10 uM after 48 hrs by sulforhodamine B assay relative to control; assay type: functional
[47] = Cytotoxicity against human EKVX cells at 10 uM after 48 hrs by sulforhodamine B assay relative to control; assay type: functional
[48] = tested on: HOP-92; test: Cytotoxicity against human HOP92 cells at 10 uM after 48 hrs by sulforhodamine B assay relative to control; assay type: functional
[49] = tested on: MCF7; test: Cytotoxicity against human MCF7 cells at 10 uM after 48 hrs by sulforhodamine B assay relative to control; assay type: functional
[50] = tested on: IGROV-1; test: Cytotoxicity against human IGROV1 cells at 10 uM after 48 hrs by sulforhodamine B assay relative to control; assay type: functional
[51] = tested on: PC-3; test: Cytotoxicity against human PC3 cells at 10 uM after 48 hrs by sulforhodamine B assay relative to control; assay type: functional
[52] = tested on: MOLT-4; test: Cytotoxicity against human MOLT4 cells at 10 uM after 48 hrs by sulforhodamine B assay relative to control; assay type: functional
[53] = tested on: HCC 2998; test: Cytotoxicity against human HCC2998 cells at 10 uM after 48 hrs by sulforhodamine B assay relative to control; assay type: functional
[54] = tested on: DU-145; test: Cytotoxicity against human DU145 cells at 10 uM after 48 hrs by sulforhodamine B assay relative to control; assay type: functional
[55] = tested on: ACHN; test: Cytotoxicity against human ACHN cells at 10 uM after 48 hrs by sulforhodamine B assay relative to control; assay type: functional
[56] = tested on: HL-60(TB); test: Cytotoxicity against human HL-60(TB) cells at 10 uM after 48 hrs by sulforhodamine B assay relative to control; assay type: functional
[57] = tested on: A549; test: Cytotoxicity against human A549 cells at 10 uM after 48 hrs by sulforhodamine B assay relative to control; assay type: functional
[58] = tested on: SNB-75; test: Cytotoxicity against human SNB75 cells at 10 uM after 48 hrs by sulforhodamine B assay relative to control; assay type: functional
[59] = tested on: SW-620; test: Cytotoxicity against human SW620 cells at 10 uM after 48 hrs by sulforhodamine B assay relative to control; assay type: functional
[60] = tested on: MDA-MB-435; test: Cytotoxicity against human MDA-MB-435 cells at 10 uM after 48 hrs by sulforhodamine B assay relative to control; assay type: functional

CN1CCN(CC(=O)Nc2ccc3c(c2)C(=O)c2cc(NC(=O)CN4CCN(C)CC4)ccc2-3)CC1
Activity [1]: 94.2%
Activity [2]: 98.38%
Activity [3]: 97.25%
Activity [4]: 89.84%
Activity [5]: 100.48%
Activity [6]: 95.51%
Activity [7]: 103.63%
Activity [8]: 107.96%
Activity [9]: 103.25%
Activity [10]: 105.62%
Activity [11]: 92.75%
Activity [12]: 133.36%
Activity [13]: 106.48%
Activity [14]: 110.09%
Activity [15]: 102.76%
Activity [16]: 108.13%
Activity [17]: 111.66%
Activity [18]: 93.37%
IC50 [19]: > 30 µM
Activity [20]: 110.11%
Activity [21]: 119.93%
Activity [22]: 110.6%
Activity [23]: 102.26%
Activity [24]: 107.34%
Activity [25]: 111.5%
Activity [26]: 106.48%
Activity [27]: 108.46%
Activity [28]: 102.69%
Activity [29]: 98.39%
Activity [30]: 111.05%
inhibition [31]: inactive
Activity [32]: 106.54%
Activity [33]: 106.31%
Activity [34]: 99.17%
Activity [35]: 97.19%
Activity [36]: 101.36%
Activity [37]: 115.79%
Activity [38]: 119.06%
Activity [39]: 90.02%
Activity [40]: 97.75%
Activity [41]: 106.03%
Activity [42]: 96.76%
Activity [43]: 104.58%
Activity [44]: 125.59%
Activity [45]: 108.52%
Activity [46]: 115.66%
Activity [47]: 100.31%
Activity [48]: 93.88%
Activity [49]: 95.17%
Activity [50]: 110.15%
Activity [51]: 101.32%
Activity [52]: 96.58%
Activity [53]: 98.62%
Activity [54]: 117.23%
Activity [55]: 111.9%
Activity [56]: 100.43%
Activity [57]: 106.99%
Activity [58]: 87.76%
Activity [59]: 103.43%
Activity [60]: 95.92%

CCNCC(=O)Nc1ccc2c(c1)C(=O)c1cc(NC(=O)CNCC)ccc1-2
Activity [1]: 64.57%
Activity [2]: 66.36%
Activity [3]: 67.74%
Activity [4]: 89.54%
Activity [5]: 77.91%
Activity [6]: 48.89%
Activity [7]: 88.81%
Activity [8]: 102.19%
Activity [9]: 93.43%
Activity [10]: 81.75%
Activity [11]: 94.69%
Activity [12]: 97.32%
Activity [13]: 95.25%
Activity [14]: 91.9%
Activity [15]: 93.46%
Activity [16]: 77.38%
Activity [17]: 69.72%
Activity [18]: 91.26%
IC50 [19]: 4.38 µM
Activity [20]: 110.09%
Activity [21]: 106.9%
Activity [22]: 123.2%
Activity [23]: 101.23%
Activity [24]: 91.4%
Activity [25]: 61.15%
Activity [26]: 90.37%
Activity [27]: 70.36%
Activity [28]: 64.33%
Activity [29]: 63.55%
Activity [30]: 71.54%
inhibition [31]: inactive
Activity [32]: 88.37%
Activity [33]: 91.09%
Activity [34]: 78.18%
Activity [35]: 55.71%
Activity [36]: 95.76%
Activity [37]: 78.21%
Activity [38]: 116.02%
Activity [39]: 82.16%
Activity [40]: 82.07%
Activity [41]: 99.42%
Activity [42]: 72.19%
Activity [43]: 53.9%
Activity [44]: 90.91%
Activity [45]: 77.37%
Activity [46]: 113.96%
Activity [47]: 90.83%
Activity [49]: 40.53%
Activity [50]: 97.57%
Activity [51]: 67.64%
Activity [52]: 61.34%
Activity [53]: 85.37%
Activity [54]: 69.67%
Activity [55]: 69.43%
Activity [56]: 95.53%
Activity [57]: 62.52%
Activity [58]: 92.67%
Activity [59]: 51.79%
Activity [60]: 65.72%
